Like-named read-outs stand apart in the source and are kept apart here.
What was measured:
C4-2 cells = experiment: Measurement of de novo fatty acid synthesis; type: cell-based; conditions: Homo sapiens, C4-2, 25 μM
Description: (§1) The tested inhibitor was added overnight at a final concentration of 25 μM to subconfluent cultures of cells grown in 6-wells plate in serum and fatty acid-free DMEM media supplemented with 0.2% BSA. Cultures were then labeled in triplicate with 1.0 μCi of [U—^14C]-palmitate or -stearate for 6 h, and total lipids were folch extracted with chloroform/methanol. Labeled lipids were subjected to TLC in hexane/diethyl ether/acetic acid 90:10:1 (V/V), to separate cholesterol ester, triglycerides and phospholipids. Standards were run for each of the lipid classes. After chromatography, labeled lipid classes were quantified by scintillation counting and radioactivity was normalized to DNA content.

LNCaP cells = experiment: Measurement of de novo fatty acid synthesis; type: cell-based; conditions: Homo sapiens
Description: as §1

[1] = system: MEFs transformed by HaRasV12 and SV40 Large T; experiment: Proliferation of MEFs; type: cell-based, mouse
Description: (§2) Primary MEFs were obtained from embryos at embryonic day 13.5 by standard methods.
(§3) Monolayer cell cultures were grown in Dulbecco's Modified Eagle's Medium (DMEM) supplemented with 25 mM glucose and 10% FCS.
(§4) At 24 h, 48 h, 72 h and 96 h following addition of increasing concentrations of the tested compound in DMSO or DMSO alone, cells were trypsinized, pelleted by centrifugation at 1200 rpm for 5 min, resuspended in 500 μl of culture medium and counted in an hemocytometer.

normal MEFs (WT) = experiment: Proliferation of MEFs; type: cell-based, mouse; conditions: slowly growing normal MEFs (WT)
Description: as §2, §3, §4

[2] = system: p53−/− MEFs transformed by HaRasV12; experiment: Proliferation of MEFs; type: cell-based, mouse; conditions: p53−/− MEFs fully transformed by HaRasV12
Description: as §2, §3, §4

[3] = read-out: inhibition of [U-14C]-palmitate incorporation into phospholipids
[4] = read-out: inhibition of [U-14C]-palmitate incorporation into sterol esters
[5] = read-out: inhibition of [U-14C]-palmitate incorporation into triglycerides
[6] = read-out: inhibition of [U-14C]-stearate incorporation into phospholipids
[7] = read-out: inhibition of [U-14C]-stearate incorporation into sterol esters
[8] = read-out: inhibition of [U-14C]-stearate incorporation into triglycerides

For COc1ccc(Br)c(C(=O)N2CCN(c3ccc(C(=O)NCCCc4ccccc4)cn3)CC2)c1 [BZ36], the inhibition at 25 µM (C4-2 cells; [3]) was 41%, the inhibition at 25 µM (C4-2 cells; [4]) was 33% and the inhibition at 25 µM (C4-2 cells; [5]) was 24%. For the same molecule, the inhibition at 25 µM (C4-2 cells; [6]) was 49%, the inhibition at 25 µM (C4-2 cells; [7]) was 70% and the inhibition at 25 µM (C4-2 cells; [8]) was 19%. The inhibition at 25 µM (LNCaP cells; [3]) was 58%, the inhibition at 25 µM (LNCaP cells; [4]) was 39% and the inhibition at 25 µM (LNCaP cells; [5]) was 27%. The inhibition at 25 µM (LNCaP cells; [6]) was 81%, the inhibition at 25 µM (LNCaP cells; [7]) was 77% and the inhibition at 25 µM (LNCaP cells; [8]) was 78%. For the same molecule, the proliferation index [1] was “strongly decreased”, the proliferation index (normal MEFs (WT)) was “only moderately reduced” and the proliferation [2] was “efficiently blocked”.
